The source of these data is US7211566B2 (Universite De Sherbrooke, priority 2003, dated 2007).

Square brackets hold non-standard residues; d marks the D form. Peptide text beside a SMILES is read from it. Oic = O=C(O)[C@@H]1C[C@@H]2CCCC[C@@H]2N1; d2Nal = N[C@H](Cc1ccc2ccccc2c1)C(=O)O; αMeF = C[C@](N)(Cc1ccccc1)C(=O)O; Orn = NCCC[C@H](N)C(=O)O

For one data set, the target named is T1, BKB2 receptor (Oryctolagus cuniculus, UniProt Q28642).
T1 construct: The rabbit jugular vein (a pure BKB2 receptor system); from tissue; host or cells: isolated rabbit jugular vein (rbJV)
T1 sequence (Q28642 1-367): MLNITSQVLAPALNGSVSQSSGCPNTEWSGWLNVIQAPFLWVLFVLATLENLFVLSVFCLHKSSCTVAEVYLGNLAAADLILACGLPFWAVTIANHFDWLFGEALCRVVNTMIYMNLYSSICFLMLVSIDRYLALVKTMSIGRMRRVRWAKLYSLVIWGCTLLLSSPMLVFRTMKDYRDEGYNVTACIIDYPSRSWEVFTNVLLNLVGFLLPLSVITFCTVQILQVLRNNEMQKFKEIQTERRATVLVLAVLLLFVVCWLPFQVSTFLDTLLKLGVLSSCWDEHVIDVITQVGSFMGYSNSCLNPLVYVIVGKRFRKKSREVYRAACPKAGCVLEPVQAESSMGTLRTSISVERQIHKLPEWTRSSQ
The data set can be described thus: Isolated rabbit jugular vein (rbJV) organ bath, antagonist potency pA2. It counts as cell-based. The conditions noted are these: BK as agonist, read-out: Antagonist potencies (pA2) BKB2-R rbJV (converted). Here is the method:
(§1) Selected antagonists were tested for activities in three isolated organs: (1) the rabbit aorta (rbA), (2) the human umbilical vein (hUV) and (3) the rabbit jugular vein (rbJV).
(§2) All details regarding the procurements of human umbilical cords and rabbit vessels as well as, the procedures for preparing the isolated organs and the experimental protocols are described in these respective publications: rbA (Rioux et al. 1973, Can J Physiol Pharmacol 51, 114–121); hUV (Gobeil et al. 1996, Br J Pharmacol 118, 289–294), and rbJV (Gaudreau et al. 1981, Can J Physiol Pharmacol 59, 371–379).
(§3) The rabbit jugular vein (a pure BKB2 receptor system) was used to exclude any action of the new compounds on the BKB2 receptor and thus establish their selectivity. All tissues were treated with captopril (1 μM) to prevent the degradation of the peptidic agonists.
(§4) Repeated applications of a single and double concentration of BK (on rbJV,) or of desArg^9BK (rbA and hUV) were made in the absence and in presence of the various peptides to evaluate their apparent affinities as antagonists, in terms of pA2 (-log10 of the molar concentration of antagonist that reduces the effect of a double concentration of agonist to that of a single one) (Schild 1947, Br J Pharmacol 2, 189–206).

In data set [1] the target is T2, BKB1 receptor (Oryctolagus cuniculus, UniProt P48748).
T2 construct: The rabbit aorta without endothelium (which contains only the BKB1 receptor); from tissue; host or cells: isolated rabbit aorta (rbA) without endothelium
T2 sequence (P48748 1-352): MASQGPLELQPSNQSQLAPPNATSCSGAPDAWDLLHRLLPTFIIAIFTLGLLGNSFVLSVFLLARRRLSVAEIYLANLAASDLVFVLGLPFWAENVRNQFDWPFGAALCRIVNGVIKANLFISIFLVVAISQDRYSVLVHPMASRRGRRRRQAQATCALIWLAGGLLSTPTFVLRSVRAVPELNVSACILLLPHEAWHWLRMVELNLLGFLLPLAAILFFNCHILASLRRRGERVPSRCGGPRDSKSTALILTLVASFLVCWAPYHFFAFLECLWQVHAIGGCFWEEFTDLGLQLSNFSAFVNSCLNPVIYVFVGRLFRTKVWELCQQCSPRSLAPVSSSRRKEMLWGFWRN
The data set can be described thus: Isolated rabbit aorta (rbA) organ bath, antagonist potency pA2. It counts as cell-based. Conditions: rabbit aorta without endothelium; mean ± SEM of 4–7 experiments; read-out: Antagonist potencies (pA2) BKB1-R rbA (converted). Here is the method:
as §1, §2
The rabbit aorta without endothelium (which contains only the BKB1 receptor) was used to determine the antagonistic activities of each compound.
as §3, §4

Data set [2] deals with T3, BKB1 receptor (Homo sapiens, UniProt P46663).
T3 sequence (P46663 1-353): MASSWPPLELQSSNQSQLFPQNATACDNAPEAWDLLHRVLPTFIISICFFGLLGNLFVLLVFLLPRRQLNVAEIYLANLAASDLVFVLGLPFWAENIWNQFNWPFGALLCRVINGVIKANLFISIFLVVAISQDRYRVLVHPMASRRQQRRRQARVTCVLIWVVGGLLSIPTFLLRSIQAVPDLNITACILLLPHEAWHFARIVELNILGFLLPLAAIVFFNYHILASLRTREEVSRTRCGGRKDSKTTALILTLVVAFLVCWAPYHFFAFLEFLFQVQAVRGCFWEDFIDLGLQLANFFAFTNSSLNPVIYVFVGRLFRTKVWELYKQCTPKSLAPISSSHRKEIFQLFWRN
Nature of the data set: Isolated human umbilical vein (hUV) organ bath, antagonist potency pA2. It counts as cell-based. Details: the hUV that contains BKB1 and BKB2 receptors; from tissue; host or cells: isolated human umbilical vein (hUV). The conditions noted are these: human umbilical vein treated with HOE 140; mean ± SEM of 4–7 experiments; read-out: Antagonist potencies (pA2) BKB1-R hUV (converted). Here is the method:
as §1, §2, §3, §4

For a further data set, the target named is T4, aminopeptidase P (AmP) (Homo sapiens, UniProt Q9NQW7).
T4 construct: from tissue; host or cells: human platelets, freeze-thawed and sonicated, 43 000 x g supernatant
T4 sequence (Q9NQW7 whole entry): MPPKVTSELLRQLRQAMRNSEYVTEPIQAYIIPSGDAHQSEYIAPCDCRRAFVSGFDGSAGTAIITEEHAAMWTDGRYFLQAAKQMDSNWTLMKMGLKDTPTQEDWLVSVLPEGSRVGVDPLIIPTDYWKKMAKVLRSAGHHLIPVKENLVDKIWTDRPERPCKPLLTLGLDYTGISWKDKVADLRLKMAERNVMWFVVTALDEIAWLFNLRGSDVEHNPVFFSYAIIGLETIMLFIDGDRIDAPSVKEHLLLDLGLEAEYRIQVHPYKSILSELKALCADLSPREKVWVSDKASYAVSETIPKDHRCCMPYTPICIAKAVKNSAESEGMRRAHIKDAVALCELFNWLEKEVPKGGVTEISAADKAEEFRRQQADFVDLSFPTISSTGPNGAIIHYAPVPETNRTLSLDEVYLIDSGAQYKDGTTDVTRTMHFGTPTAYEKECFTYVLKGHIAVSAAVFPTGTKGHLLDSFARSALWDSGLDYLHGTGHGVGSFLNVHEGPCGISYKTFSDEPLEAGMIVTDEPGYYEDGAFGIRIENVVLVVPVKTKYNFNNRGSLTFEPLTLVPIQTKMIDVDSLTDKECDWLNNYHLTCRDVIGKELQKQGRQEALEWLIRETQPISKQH
Nature of the data set: In vitro metabolic stability against human platelets AmP. It counts as in vitro ADME. Conditions: mean ± SEM of 3 experiments. The procedure: These assays were performed using three enzyme preparations: purified angiotensin converting enzyme (ACE; from rabbit lung), human plasma as a, source of aminopeptidase M (AmM) and human platelets as a source of aminopeptidase P (AmP).
Human platelet AmP was prepared as described by Maggiora et al. (1999, J Med Chem 42, 2394–2402). Human platelets (40 ml) were centrifuged at 250×g for 7 min at room temperature. The resulting supernatant was recentrifuged at 2790×g for 15 min at room temperature. Pellets were collected, resuspended in 40 ml of phosphate-buffered saline (PBS) containing 3.5% of sodium citrate, and then re-centrifuged at 2790×g for 15 min at room temperature. This washing step was repeated. Pellets were resuspended in 4 ml of PBS-sodium citrate, snap-frozen in liquid nitrogen, thawed at 37° C., sonicated briefly, and then centrifuged at 43 000×g for 2 h at 4° C. (Sorvall RC 5B, ss-34 rotor). The resulting supernatant was used for enzyme assays as described in Neugebauer et al. (Neugebauer et al. 2002, supra).

Regarding `CC[C@H](C)[C@H](NC(=O)[C@@H](Cc1ccc2ccccc2c1)NC(=O)[C@H](CO)NC(=O)[C@](C)(Cc1ccccc1)NC(=O)CNC(=O)[C@@H]1CCCN1C(=O)[C@@H]1C[C@@H]2CCCC[C@@H]2N1C(=O)[C@H](CCCNC(=N)N)NC(=O)[C@H](CCCCN)NC(C)=O)C(=O)O` [Ac-Lys[Oic^2,(α-Me)Phe^5,D-βNal^7,Ile^8]desArg^9BK] (Ac-KR[Oic]PG[αMeF]S[d2Nal]I-OH), the Kb on BKB2 receptor was more than 1000 nM; at BKB1 receptor [1], 3.16 nM; at BKB1 receptor [2], 3.72 nM. Besides, on aminopeptidase P (AmP), the “Peptide metabolism (%) Human platelets AmP” value is reported as 12 ± 4%.

Take `CC[C@H](C)[C@H](NC(=O)[C@@H](Cc1ccc2ccccc2c1)NC(=O)[C@H](CO)NC(=O)[C@](C)(Cc1ccccc1)NC(=O)CNC(=O)[C@@H]1CCCN1C(=O)[C@@H]1C[C@@H]2CCCC[C@@H]2N1C(=O)[C@H](CCCNC(=N)N)NC(=O)[C@H](CCCN)NC(C)=O)C(=O)O` [compound c, Ac-Orn[Oic^2,(α-Me)Phe^5,D-βNal^7,Ile^8]desArg^9BK] (Ac-[Orn]R[Oic]PG[αMeF]S[d2Nal]I-OH): the figures for the Kb on BKB2 receptor, on BKB1 receptor [1] and on BKB1 receptor [2] were more than 1000 nM, 2.29 nM and 3.47 nM, respectively. Besides, the “Peptide metabolism (%) Human platelets AmP” value on aminopeptidase P (AmP) came out at 12 ± 2%.
